Data set [1] addresses T1, Autotaxin (Homo sapiens, UniProt Q13822). Description: Inhibition of human ATX phosphodiesterase expressed in Sf9 cells assessed as hydrolysis of FS-3 measured after 5 to 25 mins by fluorescence assay.
The target in data set [2] is T1, Autotaxin. In words: Inhibition of human ATX phosphodiesterase expressed in Sf9 cells assessed as hydrolysis of FS-3 at 10 uM measured after 5 to 25 mins by fluorescence assay.
In data set [3] the test system is MeWo. In words: Antitumor activity against human MeWo cells xenografted in athymic nude mouse at 30 mg/kg, ip administered every other day of 21 days post tumor cell injection. The data set is classed as functional, organism-based. (In general: Xenograft models place foreign cells or tissue in a host animal.)
Data set [4] has as its system MeWo. Description: Antitumor activity against human MeWo cells xenografted in athymic nude mouse assessed as reduction of ATX level in serum at 30 mg/kg, ip administered every other day of 21 days post tumor cell injection. The data set is classed as functional, organism-based.
The target in data set [5] is T1, Autotaxin. Description: Irreversible inhibition of human ATX phosphodiesterase activity expressed in Sf9 cells assessed as hydrolysis of FS-3 preincubated for 2 mins before substrate addition measured 1000 fold dilution by fluorescence assay.
For data set [6], the system named is MeWo. Description: Cytotoxicity against human MeWo cells assessed as reduction of cell viability after 48 hrs by CellTiter-Blue assay. The data set is classed as functional.
A short description of data set [7]: Cytotoxicity against human SB2 cells after 48 hrs by CellTiter-Blue assay. Format: functional, cell-based. The conditions noted are these: SB2, 48 h. For orientation: The colour change of resazurin is a common sign of viable cells or microbes.
Data set [8] deals with T1, Autotaxin. Description: Inhibition of human ATX phosphodiesterase expressed in Sf9 cells assessed as hydrolysis of FS-3 preincubated for 2 mins before substrate addition measured after 5 to 25 mins by fluorescence assay.
Another data set deals with PC-3. Description: Cytotoxicity against human PC3 cells after 48 hrs by CellTiter-Blue assay. Format: functional, cell-based. As to conditions: PC-3, 48 h.
Data set [9] has as its system OVCAR-3. In words: Cytotoxicity against human OVCAR3 cells after 48 hrs by CellTiter-Blue assay. Format: functional, cell-based. The conditions noted are these: OVCAR-3, 48 h.
Another data set has as its system HT-29. In words: Cytotoxicity against human HT-29 cells after 48 hrs by CellTiter-Blue assay. The conditions noted are these: HT-29, 48 h. The data set is classed as functional, cell-based.
Data set [10] relates to MeWo. In words: Cytotoxicity against human MeWo cells after 48 hrs by CellTiter-Blue assay. Format: functional, cell-based.
The subject of data set [11] is MDA-MB-231. In words: Cytotoxicity against human MDA-MB-231 cells after 48 hrs by CellTiter-Blue assay. The data set is classed as functional, cell-based. As to conditions: MDA-MB-231, 48 h.
In data set [12] the test system is SK-OV-3. In words: Cytotoxicity against human SKOV3 cells after 48 hrs by CellTiter-Blue assay. The data set is classed as functional, cell-based. As to conditions: SK-OV-3, 48 h.
Data set [13] relates to MDA-MB-231. In words: Inhibition of cell migration in human MDA-MB-231 cells assessed as gap closure distance at 5 uM after 24 hrs by wound healing assay. As to conditions: MDA-MB-231, 24 h. The data set is classed as functional.
Data set [14] concerns OVCAR-3. Description: Inhibition of cell migration in human OVCAR3 cells assessed as gap closure distance at 5 uM after 24 hrs by wound healing assay. The data set is classed as functional. The conditions noted are these: OVCAR-3, 24 h.
The test system of data set [15] is SK-OV-3. In words: Inhibition of cell migration in human SKOV3 cells assessed as gap closure distance at 5 uM after 24 hrs by wound healing assay. The data set is classed as functional, cell-based.
In data set [16] the test system is MeWo. Description: Inhibition of cell migration in human MeWo cells assessed as gap closure distance at 5 uM after 24 hrs by wound healing assay. Format: functional, cell-based.
The subject of data set [17] is MDA-MB-231. In words: Inhibition of cell migration in human MDA-MB-231 cells assessed as gap closure distance at 5 uM after 24 hrs by wound healing assay in presence of 1 uM of LPA. Format: functional, cell-based.
Data set [18] concerns OVCAR-3. Description: Inhibition of cell migration in human OVCAR3 cells assessed as gap closure distance at 5 uM after 24 hrs by wound healing assay in presence of 1 uM of LPA. The data set is classed as functional, cell-based.
Data set [19] deals with SK-OV-3. In words: Inhibition of cell migration in human SKOV3 cells assessed as gap closure distance at 5 uM after 24 hrs by wound healing assay in presence of 1 uM of LPA. Format: functional, cell-based.
Data set [20] has as its system MeWo. In words: Inhibition of cell migration in human MeWo cells assessed as gap closure distance at 5 uM after 24 hrs by wound healing assay in presence of 1 uM of LPA. The data set is classed as functional, cell-based.
Data set [21] concerns Mus musculus. In words: Toxicity in human MeWo cells xenografted athymic nude mouse assessed as severe dehydration at 50 mg/kg, ip administered every other day of 21 days post tumor cell injection measured on day 45. Format: organism-based. The conditions noted are these: in vivo, 504 h.
For data set [22], the system named is Mus musculus. Description: Toxicity in human MeWo cells xenografted athymic nude mouse assessed as mortality at 50 mg/kg, ip administered every other day of 21 days post tumor cell injection measured on day 45. The data set is classed as organism-based. As to conditions: in vivo, 504 h.
For data set [23], the system named is Mus musculus. In words: Toxicity in human MeWo cells xenografted athymic nude mouse assessed as mortality at 50 mg/kg, ip administered every other day of 21 days post tumor cell injection up to 48 days followed by administered 40 mg/kg, ip. The data set is classed as organism-based. The conditions noted are these: in vivo.
In data set [24] the test system is MeWo. Description: Antitumor activity against human MeWo cells xenografted in athymic nude mouse assessed as reduction of KC/CXCL-1 level in serum at 50 mg/kg, ip administered every other day of 21 days post tumor cell injection. Format: functional, organism-based.
For data set [25], the system named is MeWo. Description: Antitumor activity against human MeWo cells xenografted in athymic nude mouse assessed as necrosis in tumor at 50 mg/kg, ip administered every other day of 21 days post tumor cell injection up to 48 days followed by administered 40 mg/kg, ip using hematoxylin and eosin staining. The data set is classed as functional, organism-based.
The test system of data set [26] is MeWo. In words: Antitumor activity against human MeWo cells xenografted in athymic nude mouse assessed as necrotic endothelial cells at 50 mg/kg, ip administered every other day of 21 days post tumor cell injection up to 48 days followed by administered 40 mg/kg, ip using hematoxylin and eosin staining. The data set is classed as functional, organism-based.
Data set [27] deals with MeWo. Description: Antitumor activity against human MeWo cells xenografted in athymic nude mouse assessed as reduction of ATX level in serum at 50 mg/kg, ip administered every other day of 21 days post tumor cell injection. Format: functional, organism-based.

Activity calls are given as the source filed them. The calls are words filed in the database; no cut-off is given here.

Regarding `C=C(CCCCCCCC/C=C\CCCCCCCC)S(=O)(=O)CCC[N+](C)(C)C`, the Ki at Autotaxin [1] stood at 2430 nM.
With `C=C(CCCCCC)S(=O)(=O)CCC[N+](C)(C)C`, the inhibition entry on Autotaxin [2] is “inactive”.
For the compound `O=C(CCN1CCN(C(=O)OCc2cc(Cl)cc(Cl)c2)CC1)c1ccc2[nH]c(=O)oc2c1`, the result in the data set on MeWo [3] and in the data set with MeWo [4] was inactive.
Consider `C=C(CCCCCCCCCCCC)S(=O)(=O)CCC[N+](C)(C)C`, for which the Ki at Autotaxin [1] worked out at 1790 nM.
As to `C=C(CCCCCCCCCCCCCCCC)S(=O)(=O)c1ccccc1`, the inhibition result on Autotaxin [2] and on Autotaxin [5] was “inactive” in each case.
Consider `O=C1S/C(=C\c2ccc(OCc3cccc(B(O)O)c3)cc2)C(=O)N1Cc1ccc(F)cc1`, for which, in the data set on MeWo [6], the Activity is given as less than 25%. Moreover, the result in the data set with MeWo [3] and in the data set with MeWo [4] was inactive.
In the case of `C=C(CCCCCCCCCCCCCCCC)S(=O)(=O)CCC[N+](C)(C)C.[Cl-]`, the IC50 in [7] was 4.89 µM; in the data set with PC-3, 1930 nM; in the data set on OVCAR-3 [9] it was 4.44 µM; in the data set on HT-29, 2110 nM; with MeWo [10], 4.08 µM; in the data set with MDA-MB-231 [11], 390 nM. The half-inhibitory concentration (IC50) in the data set with SK-OV-3 [12] stood at 6.74 µM. The Ki at Autotaxin [1] was 3500 nM. In addition, the inhibition entry at Autotaxin [8] is “inactive”. Besides, the inhibition result on Autotaxin [5], in the data set on SK-OV-3 [15], in the data set with MeWo [16], in the data set with MDA-MB-231 [17], with OVCAR-3 [18] and in the data set with SK-OV-3 [19] was “Active” in each case. Also, in the data set on MeWo [20], the inhibition result was “Active”. The inhibition at 5 µM in the data set with MDA-MB-231 [13] and in the data set on OVCAR-3 [14] was 75% in each case. The Activity is less than 25% with MeWo [6], “Toxic” with Mus musculus [21], “Toxic” in the data set on Mus musculus [22] and “Non-toxic” in the data set on Mus musculus [23]. For the same compound, the outcome with MeWo [24], with MeWo [25], with MeWo [26] and in the data set with MeWo [27] was Active.

As a reminder, the Ki is a measure of affinity in units of concentration, obtained from inhibition or displacement. Broadly, the inhibition is the share of the control response that was lost under treatment. The IC50 is the concentration needed to halve the response being measured. Low values mean higher potency, high ones lower potency.

For the origin of these results see ChEMBL document CHEMBL3603761 (Bioorg Med Chem, 2015).
